Experimental data taken from patent US10954246B2, “Compound of EOC315 Mod.I crystal form and preparation method thereof” (Taizhou EOC Pharma Co., Ltd., priority 2017, dated 2021).
Where a name gives a salt, the structure may show the parent alone.

Key:
[1] = Stability evaluation under accelerated condition (40° C., RH 75%); assay type: physicochemical
Method: Long-term stability over twelve months was evaluated at 25° C. and a relative humidity of 60%; or accelerated stability over six months was evaluated at 40° C. and a relative humidity of 75%.

[2] = test system: Colo-205 human CRC xenograft; assay: Colo-205 human CRC xenograft model, tumor microvessel histomorphometry (CD31); assay type: in vivo; conditions: for decrease of MVA: 3 days after the administration
Method: The EOC315 crystalline form Mod. […] Therefore, a study was conducted in a Colo-205 human CRC xenograft model to evaluate whether the anti-tumor activity observed in vivo is consistent with the hypothesis. The microvessel density of a tumor was determined by the quantitative histomorphometry after the endothelial cell marker CD31 was stained. Four hours after the first drug delivery, the declining level of the tumor MVA was further increased compared with each solvent control group (32%; P<0.05). Twenty-four hours after the administration, the declining level of the tumor MVA was further increased (53%; P<0.01).

[3] = Thermogravimetric analysis (TGA); assay type: physicochemical
Method: The DTA curve of a test sample has an endothermic peak at 198.1° C., which is consistent with the DSC result.

[4] = Month 0, limit 0.10%, listed as 151211
[5] = Month 0, limit 0.10%, listed as 151212
[6] = Month 0, limit 0.10%, listed as 151213
[7] = Month 1, limit 0.10%, listed as 151211
[8] = Month 1, limit 0.10%, listed as 151212
[9] = Month 1, limit 0.10%, listed as 151213
[10] = Month 1, limit 0.17%, listed as 151211
[11] = Month 1, limit 0.17%, listed as 151212
[12] = Month 1, limit 0.17%, listed as 151213
[13] = Month 2, limit 0.10%, listed as 151211
[14] = Month 2, limit 0.10%, listed as 151212
[15] = Month 2, limit 0.10%, listed as 151213
[16] = Month 2, limit 0.17%, listed as 151211
[17] = Month 2, limit 0.17%, listed as 151212
[18] = Month 2, limit 0.17%, listed as 151213
[19] = Month 3, limit 0.10%, listed as 151211
[20] = Month 3, limit 0.10%, listed as 151212
[21] = Month 3, limit 0.10%, listed as 151213
[22] = Month 6, limit 0.10%, listed as 151211
[23] = Month 6, limit 0.10%, listed as 151212
[24] = Month 6, limit 0.10%, listed as 151213
[25] = Month 6, limit 0.17%, listed as 151211
[26] = Month 6, limit 0.17%, listed as 151212
[27] = Month 6, limit 0.17%, listed as 151213

## CNC(=O)c1cc(OCc2nnc(Nc3ccc(Cl)cc3)c3ccoc23)ccn1 [EOC315 crystalline form Mod. I, 4-(4-chloroanilino)-7-(2-methylaminocarbonyl-4-oxymethyl)pyridylfuro[2,3-d]pyridazine mesylate]
[1]; [4]
  Related substance Impurity 5: 0.02%
  Related substance Impurity 6: 0.01%
[1]; [5]
  Related substance Impurity 5: 0.01%
  Related substance Impurity 6: Undetected
[1]; [6]
  Related substance Impurity 5: Undetected
  Related substance Impurity 6: Undetected
[1]; Month 0, limit 0.15%, listed as 151211
  Related substance Maximum single impurity: 0.0079%
[1]; Month 0, limit 0.15%, listed as 151212
  Related substance Maximum single impurity: 0.012%
[1]; Month 0, limit 0.15%, listed as 151213
  Related substance Maximum single impurity: 0.0085%
[1]; Month 0, limit 0.17%
  Related substance Impurity 1: Undetected
  Related substance Impurity 2: Undetected
[1]; Month 0, limit 0.17%, listed as 151211
  Related substance Impurity 3: 0.016%
[1]; Month 0, limit 0.17%, listed as 151212
  Related substance Impurity 3: 0.011%
[1]; Month 0, limit 0.17%, listed as 151213
  Related substance Impurity 3: 0.011%
[1]; Month 0, limit 1.0%, listed as 151211
  Related substance Total impurity: 0.53%
[1]; Month 0, limit 1.0%, listed as 151212
  Related substance Total impurity: 0.66%
[1]; Month 0, limit 1.0%, listed as 151213
  Related substance Total impurity: 0.52%
[1]; Month 0, limit 3.0%, listed as 151211
  Related substance Impurity 4: 0.36%
[1]; Month 0, limit 3.0%, listed as 151212
  Related substance Impurity 4: 0.46%
[1]; Month 0, limit 3.0%, listed as 151213
  Related substance Impurity 4: 0.35%
[1]; Month 0, limit ModI
  Crystalline form: ModI
[1]; [7]
  Related substance Impurity 5: Undetected
  Related substance Impurity 6: 0.01%
[1]; [8]
  Related substance Impurity 5: 0.01%
  Related substance Impurity 6: Undetected
[1]; [9]
  Related substance Impurity 5: 0.01%
  Related substance Impurity 6: Undetected
[1]; Month 1, limit 0.15%, listed as 151211
  Related substance Maximum single impurity: 0.011%
[1]; Month 1, limit 0.15%, listed as 151212
  Related substance Maximum single impurity: Undetected
[1]; Month 1, limit 0.15%, listed as 151213
  Related substance Maximum single impurity: 0.0077%
[1]; Month 1, limit 0.17%
  Related substance Impurity 1: Undetected
[1]; [10]
  Related substance Impurity 2: 0.0031%
  Related substance Impurity 3: 0.0040%
[1]; [11]
  Related substance Impurity 2: 0.0026%
  Related substance Impurity 3: 0.0037%
[1]; [12]
  Related substance Impurity 2: Undetected
  Related substance Impurity 3: 0.0035%
[1]; Month 1, limit 1.0%, listed as 151211
  Related substance Total impurity: 0.5%
[1]; Month 1, limit 1.0%, listed as 151212
  Related substance Total impurity: 0.6%
[1]; Month 1, limit 1.0%, listed as 151213
  Related substance Total impurity: 0.5%
[1]; Month 1, limit 3.0%, listed as 151211
  Related substance Impurity 4: 0.4%
[1]; Month 1, limit 3.0%, listed as 151212
  Related substance Impurity 4: 0.5%
[1]; Month 1, limit 3.0%, listed as 151213
  Related substance Impurity 4: 0.3%
[1]; [13]
  Related substance Impurity 5: Undetected
  Related substance Impurity 6: 0.01%
[1]; [14]
  Related substance Impurity 5: 0.02%
  Related substance Impurity 6: Undetected
[1]; [15]
  Related substance Impurity 5: Undetected
  Related substance Impurity 6: Undetected
[1]; Month 2, limit 0.15%, listed as 151211
  Related substance Maximum single impurity: 0.0045%
[1]; Month 2, limit 0.15%, listed as 151212
  Related substance Maximum single impurity: 0.0062%
[1]; Month 2, limit 0.15%, listed as 151213
  Related substance Maximum single impurity: 0.0067%
[1]; Month 2, limit 0.17%
  Related substance Impurity 1: Undetected
[1]; [16]
  Related substance Impurity 2: Undetected
  Related substance Impurity 3: 0.0013%
[1]; [17]
  Related substance Impurity 2: 0.0036%
  Related substance Impurity 3: 0.0070%
[1]; [18]
  Related substance Impurity 2: 0.0035%
  Related substance Impurity 3: 0.014%
[1]; Month 2, limit 1.0%, listed as 151211
  Related substance Total impurity: 0.6%
[1]; Month 2, limit 1.0%, listed as 151212
  Related substance Total impurity: 0.7%
[1]; Month 2, limit 1.0%, listed as 151213
  Related substance Total impurity: 0.6%
[1]; Month 2, limit 3.0%, listed as 151211
  Related substance Impurity 4: 0.4%
[1]; Month 2, limit 3.0%, listed as 151212
  Related substance Impurity 4: 0.5%
[1]; Month 2, limit 3.0%, listed as 151213
  Related substance Impurity 4: 0.4%
[1]; [19]
  Related substance Impurity 5: 0.01%
  Related substance Impurity 6: 0.02%
[1]; [20]
  Related substance Impurity 5: 0.01%
  Related substance Impurity 6: Undetected
[1]; [21]
  Related substance Impurity 5: Undetected
  Related substance Impurity 6: 0.01% d
[1]; Month 3, limit 0.15%
  Related substance Maximum single impurity: Undetected
[1]; Month 3, limit 0.17%
  Related substance Impurity 1: Undetected
  Related substance Impurity 2: Undetected
  Related substance Impurity 3: Undetected
[1]; Month 3, limit 1.0%, listed as 151211
  Related substance Total impurity: 0.5%
[1]; Month 3, limit 1.0%, listed as 151212
  Related substance Total impurity: 0.6%
[1]; Month 3, limit 1.0%, listed as 151213
  Related substance Total impurity: 0.5%
[1]; Month 3, limit 3.0%, listed as 151211
  Related substance Impurity 4: 0.4%
[1]; Month 3, limit 3.0%, listed as 151212
  Related substance Impurity 4: 0.5%
[1]; Month 3, limit 3.0%, listed as 151213
  Related substance Impurity 4: 0.37%
[1]; [22]
  Related substance Impurity 5: 0.01%
  Related substance Impurity 6: 0.01%
[1]; [23]
  Related substance Impurity 5: 0.01%
  Related substance Impurity 6: Undetected
[1]; [24]
  Related substance Impurity 5: Undetected
  Related substance Impurity 6: Undetected
[1]; Month 6, limit 0.15%, listed as 151211
  Related substance Maximum single impurity: 0.030%
[1]; Month 6, limit 0.15%, listed as 151212
  Related substance Maximum single impurity: 0.032%
[1]; Month 6, limit 0.15%, listed as 151213
  Related substance Maximum single impurity: 0.029%
[1]; Month 6, limit 0.17%
  Related substance Impurity 1: Undetected
[1]; [25]
  Related substance Impurity 2: 0.0061%
  Related substance Impurity 3: 0.045%
[1]; [26]
  Related substance Impurity 2: 0.0043%
  Related substance Impurity 3: 0.044%
[1]; [27]
  Related substance Impurity 2: 0.045%
  Related substance Impurity 3: 0.060%
[1]; Month 6, limit 1.0%, listed as 151211
  Related substance Total impurity: 0.7%
[1]; Month 6, limit 1.0%, listed as 151212
  Related substance Total impurity: 0.8%
[1]; Month 6, limit 1.0%, listed as 151213
  Related substance Total impurity: 0.7%
[1]; Month 6, limit 3.0%, listed as 151211
  Related substance Impurity 4: 0.4%
[1]; Month 6, limit 3.0%, listed as 151212
  Related substance Impurity 4: 0.5%
[1]; Month 6, limit 3.0%, listed as 151213
  Related substance Impurity 4: 0.4%
[1]; Month 6, limit ModI
  Crystalline form: ModI
[2]; at 4 hours
  decrease of MVA: 64%
[2]; at 6 hours
  decrease of MVA: 68%
[2]; conclusion from the xenograft results
  growth of tumor cells: significantly suppressed
[2]; four hours after the first drug delivery, P<0.05
  decline of tumor MVA vs solvent control: 32%
[2]; twenty-four hours after the administration, P<0.01
  decline of tumor MVA vs solvent control: 53%
[3]
  degradation temperature: about 241.71 °C
